# Literature values as cited in patent US20050142195A1, “Stable pharmaceutical compositions without a stabilizer” (priority 2002, published 2005).
# Read-outs that look alike come from different tables or passages of the source.
smiles,measurement,setting,value
"CC(NC(C)(C)C)C(=O)c1cccc(Cl)c1.Cl (racemic) [bupropion, (±)-1-(3-chlorophenyl)-2-[(1,1-dimethylethyl)amino]-1-propanone hydrochloride]",stability in mixture with lubricant,in the presence of magnesium stearate or stearic acid,poor
same,stability in mixture with lubricant,in the presence of talc,stable
